From patent publication US6482975B1, “Bis-poly(ethylene oxide) surfactants and their use as antistats in photographic materials” (Eastman Kodak Company, priority 1998, dated 2002)

Experiments:
[1] = Ease of dissolution of surfactant in water; format: physicochemical
Method: (§1) A number of surfactants were tested for their ease of dissolution in water. Furthermore, the critical micelle concentrations (CMCs) of the surfactants were determined in aqueous solution containing 7% weight/weight deionised Type IV bone gelatin. The CMCs were determined from surface tension data by estimating the break point in the plot of surface tension against log concentration (see M. J. Rosen, Surfactants and Interfacial Phenomena, 2nd Edition, Wiley (1989), 110).

[2] = Critical micelle concentration from surface tension data in aqueous 7% w/w gelatin solution; format: physicochemical; conditions: aqueous solution containing 7% wt/wt deionised Type IV bone gelatin
Method: as §1

## CxF2x+1(CH2)y—(CH2CH2O) z—OH [Zonyl FSN]
[1]
  Solubility in Water: Requires relatively long stirring
[2]
  CMC in molar terms (M) moles kg^−1: 0.0003 M

## Fluoroalkylthiosuccinic acid, Polyethylene glycol diester (II, R=C6F13CH2CH2,p=7)
[1]
  Solubility in Water: Dissolves easily with gentle
[2]
  CMC in molar terms (M) moles kg^−1: 6e-05 M
